Measurements from patent US4069316A, “Method for producing antibiotic T-42082 and antibiotic T-42082” (Takeda Chemical Industries, Ltd., priority 1976, dated 1978).

Test system: Eimeria tenella
Assay: Experimental 3: anticoccidial effect in chicks inoculated with drug-resistant wild strain
Description: The following experiment was carried out with a wild strain resistant to the conventional anticoccidial drugs.
The oocysts, predominantly of Eimeria tenella, obtained from a wild strain were used to inoculate chicks at a rate of 10×10^5 sporulated oocysts per bird. […] The battery test procedure was repeated.

NC(=NN=Cc1ccc(Cl)cc1)NN=Cc1ccc(Cl)cc1 [Lobenidine]
At end of experiment/At start of experiment (No. of birds) (33.0 ppm): 3/3 | Relative Weight gain (33.0 ppm): 26.4% | The pathological change of caecum: birds scored + (33.0 ppm): 0 | The pathological change of caecum: birds scored ++ (33.0 ppm): 0 | The pathological change of caecum: birds scored +++ (33.0 ppm): 0 | The pathological change of caecum: birds scored ++++ (33.0 ppm): 3 | The pathological change of caecum: birds scored - (33.0 ppm): 0 | No. of blood drops/per bird (33.0 ppm, day 4): 2.3 | No. of blood drops/per bird (33.0 ppm, day 5): 9.3 | No. of deaths (33.0 ppm, day 5): 0 | No. of blood drops/per bird (33.0 ppm, day 6): 9.3 | No. of deaths (33.0 ppm, day 6): 0 | No. of blood drops/per bird (33.0 ppm, day 7): 6.0 | No. of deaths (33.0 ppm, day 7): 0 | No. of deaths (33.0 ppm, day 8): 0 | At end of experiment/At start of experiment (No. of birds) (66.0 ppm): 3/3 | Relative Weight gain (66.0 ppm): 53.4% | The pathological change of caecum: birds scored + (66.0 ppm): 0 | The pathological change of caecum: birds scored ++ (66.0 ppm): 0 | The pathological change of caecum: birds scored +++ (66.0 ppm): 0 | The pathological change of caecum: birds scored ++++ (66.0 ppm): 3 | The pathological change of caecum: birds scored - (66.0 ppm): 0 | No. of blood drops/per bird (66.0 ppm, day 4): 0.6 | No. of blood drops/per bird (66.0 ppm, day 5): 8.0 | No. of deaths (66.0 ppm, day 5): 0 | No. of blood drops/per bird (66.0 ppm, day 6): 10.0 | No. of deaths (66.0 ppm, day 6): 0 | No. of blood drops/per bird (66.0 ppm, day 7): 4.6 | No. of deaths (66.0 ppm, day 7): 0 | No. of deaths (66.0 ppm, day 8): 0
